Data taken from patent US9023789B2, “Amylin analogs and pharmaceutical compositions thereof” (Novo Nordisk A/S, priority 2012, dated 2015).
Numbered stars: 1 amine (or outer) side, 2 acyl side, 3 side chain; on linkers, the order of the positions; unused ones are H or OH. Bridge positions count the residues as written; N and C are the ends. Side chains are listed from the residue outwards. Peptide text beside a SMILES is read from it. * marks the point of attachment. C20 diacid = O=C(O)CCCCCCCCCCCCCCCCCCC(=O)*; γGlu = O=C(O)[C@H](CCC(=O)[*:2])N[*:1]; AEEA = NCCOCCOCC(=O)O

How the values were obtained:
[1] = ASSAY (III) ThT fibrillation assay for physical stability; assay type: physicochemical
Summary of the method: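 Formulations with 1 μM ThT, pH adjusted as required, incubated at 37 °C with 960 rpm orbital shaking; fluorescence (ex 444/em 485 nm) read every 20 min. Fibrillation reported as mean ThT fluorescence ± SD of 4–8 replicates at time points; polypeptide concentration measured by reverse-phase HPLC before and after, post-centrifugation.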

[2] = biological target: T1, human amylin 3(a) receptor (human calcitonin receptor + RAMP-3) in BHK570 cells (Homo sapiens, UniProt O60896+P30988); assay: ASSAY (II)a functional assay, human amylin receptor (CRE luciferase); assay type: cell-based; settings: for EC50: human amylin receptor functional potency, assay (II), read-out: hAmylin-R funct. EC50
T1 construct: expressed in transfected cells
T1 sequence (O60896 24-148): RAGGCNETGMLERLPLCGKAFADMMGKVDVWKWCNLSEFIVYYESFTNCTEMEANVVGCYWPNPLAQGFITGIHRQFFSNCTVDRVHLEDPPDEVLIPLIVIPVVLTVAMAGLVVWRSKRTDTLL
T1 sequence (P30988 25-474): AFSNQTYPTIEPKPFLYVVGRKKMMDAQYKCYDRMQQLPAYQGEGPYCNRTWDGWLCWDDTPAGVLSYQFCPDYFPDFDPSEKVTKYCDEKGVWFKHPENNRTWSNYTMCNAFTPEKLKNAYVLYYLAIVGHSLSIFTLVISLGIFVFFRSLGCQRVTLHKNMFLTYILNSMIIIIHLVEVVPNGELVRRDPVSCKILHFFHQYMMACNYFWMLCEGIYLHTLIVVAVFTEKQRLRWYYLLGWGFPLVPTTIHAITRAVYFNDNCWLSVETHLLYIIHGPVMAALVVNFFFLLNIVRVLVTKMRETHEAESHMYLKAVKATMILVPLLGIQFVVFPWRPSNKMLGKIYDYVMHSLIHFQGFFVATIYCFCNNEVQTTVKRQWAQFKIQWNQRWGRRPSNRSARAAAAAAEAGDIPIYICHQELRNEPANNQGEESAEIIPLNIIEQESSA
Summary of the method: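 Cells were seeded and cultured overnight, then incubated with standard or sample for 3 h at 37° C in serum-containing medium at pH 7.4. The medium was then swapped for PBS, LucLite was added for 30 min at room temperature, and luminescence was recorded. Cells were BHK with CRE-luc and calcitonin receptor, ± RAMP-3.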

Sprague Dawley (SD) rats = assay: ASSAY (I) efficacy testing on appetite (food intake) using an ad libitum fed rat model; assay type: in vivo; settings: rat, 30 nmol/kg
Summary of the method: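 Ad libitum fed SD rats (200–250 g) were housed singly on a reversed light/dark cycle and given one 0.01–3 mg/kg dose ip, po or sc just before lights-off, with 5–8 per dose group plus vehicle controls. Food intake was recorded hourly for 7 h, then at 24 h and sometimes 48 h; Grubbs outliers were excluded.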

[3] = hCTR funct. EC50 divided by hAmylin-R funct. EC50
[4] = hCTR funct. EC50 over hAmylin-R funct. EC50
[5] = human functional selectivity: hCTR funct. EC50 / hAmylin-R funct. EC50

| ThT pH 4.0 lag time (h) [1] | Ratio hCT/hAmylin funct. [2, 3] | Ratio hCT/hAmylin funct. [2, 4] | Ratio hCT/hAmylin funct. [2, 5] | EC50 [2] | SMILES | Food intake reduction 0-24 h 30 nmol/kg (%) (Sprague Dawley (SD) rats) | Food intake reduction 24-48 h 30 nmol/kg (%) (Sprague Dawley (SD) rats) |
| --- | --- | --- | --- | --- | --- | --- | --- |
| 45 h | 15.8 | 15.8 | 15.8 | – | CC[C@H](C)[C@H](NC(=O)[C@H](C)NC(=O)CNC(=O)[C@H](Cc1ccccc1)NC(=O)[C@H](CC(N)=O)NC(=O)[C@@H]1CCCN1C(=O)[C@H](CO)NC(=O)[C@H](CO)NC(=O)[C@H](Cc1c[nH]cn1)NC(=O)[C@H](CCCNC(=N)N)NC(=O)[C@H](CC(C)C)NC(=O)[C@H](Cc1ccccc1)NC(=O)[C@H](CCC(=O)O)NC(=O)[C@H](C)NC(=O)[C@H](CC(C)C)NC(=O)[C@H](CCCNC(=N)N)NC(=O)[C@H](CCC(N)=O)NC(=O)[C@@H](NC(=O)[C@H](C)NC(=O)[C@@H]1CSSC[C@H](NC(=O)[C@@H](N)CCCCNC(=O)CC[C@H](NC(=O)CC[C@H](NC(=O)CCCCCCCCCCCCCCCCCCC(=O)O)C(=O)O)C(=O)O)C(=O)N[C@@H](CC(N)=O)C(=O)N[C@@H]([C@@H](C)O)C(=O)N[C@@H](C)C(=O)N[C@@H]([C@@H](C)O)C(=O)N1)[C@@H](C)O)C(=O)N1CCC[C@H]1C(=O)N[C@@H](CO)C(=O)N[C@@H](CO)C(=O)N[C@H](C(=O)N[C@@H](CC(N)=O)C(=O)N[C@H](C(=O)NCC(=O)N[C@@H](Cc1c[nH]cn1)C(=O)N[C@@H](CCC(=O)O)C(=O)N[C@H](C(=O)N[C@@H](Cc1ccc(O)cc1)C(N)=O)[C@@H](C)O)C(C)C)[C@@H](C)O [Example 104] (H-K([γGlu-γGlu-C20 diacid])CNTATCATQRLAEFLRHSSPNFGAIPSSTNVGHETY-NH2; disulfide 2-7; N-terminus assumed) | 31% | 28% |
| 45 h | 17.0 | 17.0 | 17.0 | – | CC[C@H](C)[C@H](NC(=O)[C@H](C)NC(=O)CNC(=O)[C@H](Cc1ccccc1)NC(=O)[C@H](CC(N)=O)NC(=O)[C@@H]1CCCN1C(=O)[C@H](CO)NC(=O)[C@H](CO)NC(=O)[C@H](Cc1c[nH]cn1)NC(=O)[C@H](CCCNC(=N)N)NC(=O)[C@H](CC(C)C)NC(=O)[C@H](Cc1ccccc1)NC(=O)[C@H](CC(N)=O)NC(=O)[C@H](C)NC(=O)[C@H](CC(C)C)NC(=O)[C@H](CCCNC(=N)N)NC(=O)[C@H](CCC(N)=O)NC(=O)[C@@H](NC(=O)[C@H](C)NC(=O)[C@@H]1CSSC[C@H](NC(=O)[C@H](CCCNC(=N)N)NC(=O)[C@@H](N)CCCCNC(=O)COCCOCCNC(=O)CC[C@H](NC(=O)CCCCCCCCCCCCCCCCCCC(=O)O)C(=O)O)C(=O)N[C@@H](CC(N)=O)C(=O)N[C@@H]([C@@H](C)O)C(=O)N[C@@H](C)C(=O)N[C@@H]([C@@H](C)O)C(=O)N1)[C@@H](C)O)C(=O)N1CCC[C@H]1C(=O)N[C@@H](CO)C(=O)N[C@@H](CO)C(=O)N[C@H](C(=O)N[C@@H](CC(N)=O)C(=O)N[C@H](C(=O)NCC(=O)N[C@@H](CO)C(=O)N[C@@H](Cc1c[nH]cn1)C(=O)N[C@H](C(=O)N[C@@H](Cc1ccc(O)cc1)C(N)=O)[C@@H](C)O)C(C)C)[C@@H](C)O [Example 45] (H-K([AEEA-γGlu-C20 diacid])RCNTATCATQRLANFLRHSSPNFGAIPSSTNVGSHTY-NH2; disulfide 3-8 (inferred)) | 27% | 3% |
| 45 h | 11.6 | 11.6 | 11.6 | 0.217 nM | CC[C@H](C)[C@H](NC(=O)[C@H](C)NC(=O)CNC(=O)[C@H](Cc1ccccc1)NC(=O)[C@H](CC(N)=O)NC(=O)[C@@H]1CCCN1C(=O)[C@H](CO)NC(=O)[C@H](CO)NC(=O)[C@H](Cc1c[nH]cn1)NC(=O)[C@H](CCCNC(=N)N)NC(=O)[C@H](CC(C)C)NC(=O)[C@H](Cc1ccccc1)NC(=O)[C@H](CC(N)=O)NC(=O)[C@H](C)NC(=O)[C@H](CC(C)C)NC(=O)[C@H](CCCNC(=N)N)NC(=O)[C@H](CCC(N)=O)NC(=O)[C@@H](NC(=O)[C@H](C)NC(=O)[C@@H]1CSSC[C@H](NC(=O)[C@H](CCCCN)NC(=O)CC[C@H](NC(=O)CCCCCCCCCCCCCCCCCCC(=O)O)C(=O)O)C(=O)N[C@@H](CC(N)=O)C(=O)N[C@@H]([C@@H](C)O)C(=O)N[C@@H](C)C(=O)N[C@@H]([C@@H](C)O)C(=O)N1)[C@@H](C)O)C(=O)N1CCC[C@H]1C(=O)N[C@@H](CO)C(=O)N[C@@H](CO)C(=O)N[C@H](C(=O)N[C@@H](CC(N)=O)C(=O)N[C@H](C(=O)NCC(=O)N[C@@H](CCCNC(=N)N)C(=O)N[C@@H](CC(N)=O)C(=O)N[C@H](C(=O)N[C@@H](Cc1ccc(O)cc1)C(N)=O)[C@@H](C)O)C(C)C)[C@@H](C)O [Example 39] ({C20 diacid-γGlu}-KCNTATCATQRLANFLRHSSPNFGAIPSSTNVGRNTY-NH2; disulfide 2-7) | 36% | 8% |
| 7 h | 14.0 | 14.0 | 14.0 | – | CC[C@H](C)[C@H](NC(=O)[C@H](C)NC(=O)CNC(=O)[C@H](Cc1ccccc1)NC(=O)[C@H](CC(N)=O)NC(=O)[C@@H]1CCCN1C(=O)[C@H](CO)NC(=O)[C@H](CO)NC(=O)[C@H](Cc1c[nH]cn1)NC(=O)[C@H](CCCNC(=N)N)NC(=O)[C@H](CC(C)C)NC(=O)[C@H](Cc1ccccc1)NC(=O)[C@H](CCC(=O)O)NC(=O)[C@H](C)NC(=O)[C@H](CC(C)C)NC(=O)[C@H](CCCNC(=N)N)NC(=O)[C@H](CCC(N)=O)NC(=O)[C@@H](NC(=O)[C@H](C)NC(=O)[C@@H]1CSSC[C@H](NC(=O)[C@@H](N)CCCCNC(=O)CC[C@H](NC(=O)CCCCCCCCCCCCCCCCCCC(=O)O)C(=O)O)C(=O)N[C@@H](CC(N)=O)C(=O)N[C@@H]([C@@H](C)O)C(=O)N[C@@H](C)C(=O)N[C@@H]([C@@H](C)O)C(=O)N1)[C@@H](C)O)C(=O)N1CCC[C@H]1C(=O)N[C@@H](CO)C(=O)N[C@@H](CO)C(=O)N[C@H](C(=O)N[C@@H](CC(N)=O)C(=O)N[C@H](C(=O)NCC(=O)N[C@@H](CO)C(=O)N[C@@H](CCCNC(=N)N)C(=O)N[C@H](C(=O)N[C@@H](Cc1ccc(O)cc1)C(N)=O)[C@@H](C)O)C(C)C)[C@@H](C)O [Example 51] (H-K([γGlu-C20 diacid])CNTATCATQRLAEFLRHSSPNFGAIPSSTNVGSRTY-NH2; disulfide 2-7 (inferred); N-terminus assumed) | 52% | 30% |
| 45 h | 15.0 | 15.0 | 15.0 | 0.364 nM | CC[C@H](C)[C@H](NC(=O)[C@H](C)NC(=O)CNC(=O)[C@H](Cc1ccccc1)NC(=O)[C@H](CC(N)=O)NC(=O)[C@@H]1CCCN1C(=O)[C@H](CO)NC(=O)[C@H](CO)NC(=O)[C@H](Cc1c[nH]cn1)NC(=O)[C@H](CCCNC(=N)N)NC(=O)[C@H](CC(C)C)NC(=O)[C@H](Cc1ccccc1)NC(=O)[C@H](CC(N)=O)NC(=O)[C@H](C)NC(=O)[C@H](CC(C)C)NC(=O)[C@H](CCCNC(=N)N)NC(=O)[C@H](CCC(N)=O)NC(=O)[C@@H](NC(=O)[C@H](C)NC(=O)[C@@H]1CSSC[C@H](NC(=O)[C@@H](N)CCCCNC(=O)CC[C@H](NC(=O)CCCCCCCCCCCCCCCCCCC(=O)O)C(=O)O)C(=O)N[C@@H](CC(N)=O)C(=O)N[C@@H]([C@@H](C)O)C(=O)N[C@@H](C)C(=O)N[C@@H]([C@@H](C)O)C(=O)N1)[C@@H](C)O)C(=O)N1CCC[C@H]1C(=O)N[C@@H](CO)C(=O)N[C@@H](CO)C(=O)N[C@H](C(=O)N[C@@H](CC(N)=O)C(=O)N[C@H](C(=O)NCC(=O)N[C@@H](CO)C(=O)N[C@@H](CCCCN)C(=O)N[C@H](C(=O)N[C@@H](Cc1ccc(O)cc1)C(N)=O)[C@@H](C)O)C(C)C)[C@@H](C)O [Example 35] (H-K([γGlu-C20 diacid])CNTATCATQRLANFLRHSSPNFGAIPSSTNVGSKTY-NH2; disulfide 2-7; N-terminus assumed) | 51% | 15% |
| 26 h | 5.2 | – | 5.2 | – | CC[C@H](C)[C@H](NC(=O)[C@H](C)NC(=O)CNC(=O)[C@H](Cc1ccccc1)NC(=O)[C@H](CC(N)=O)NC(=O)[C@@H]1CCCN1C(=O)[C@H](CO)NC(=O)[C@H](CO)NC(=O)[C@H](Cc1c[nH]cn1)NC(=O)[C@H](CCCNC(=N)N)NC(=O)[C@H](CC(C)C)NC(=O)[C@H](Cc1ccccc1)NC(=O)[C@H](Cc1c[nH]cn1)NC(=O)[C@H](C)NC(=O)[C@H](CC(C)C)NC(=O)[C@H](CCCNC(=N)N)NC(=O)[C@H](CCC(N)=O)NC(=O)[C@@H](NC(=O)[C@H](C)NC(=O)[C@@H]1CSSC[C@H](NC(=O)[C@@H](N)CCCCNC(=O)CC[C@H](NC(=O)CCCCCCCCCCCCCCCCCCC(=O)O)C(=O)O)C(=O)N[C@@H](CC(N)=O)C(=O)N[C@@H]([C@@H](C)O)C(=O)N[C@@H](C)C(=O)N[C@@H]([C@@H](C)O)C(=O)N1)[C@@H](C)O)C(=O)N1CCC[C@H]1C(=O)N[C@@H](CO)C(=O)N[C@@H](CO)C(=O)N[C@H](C(=O)N[C@@H](CC(N)=O)C(=O)N[C@H](C(=O)NCC(=O)N1CCC[C@H]1C(=O)N[C@@H](CC(N)=O)C(=O)N[C@H](C(=O)N[C@@H](Cc1ccc(O)cc1)C(N)=O)[C@@H](C)O)C(C)C)[C@@H](C)O [Example 67] (H-K([γGlu-C20 diacid])CNTATCATQRLAHFLRHSSPNFGAIPSSTNVGPNTY-NH2; disulfide 2-7 (inferred); N-terminus assumed) | 47% | 0% |
